Results as given in patent publication US12180194B2, “Multi-aziridine compound” (Covestro (Netherlands) B.V., priority 2018, dated 2024).

What was measured:
Rtkn-GFP = assay: ToxTracker genotoxicity assay, Rtkn-GFP reporter induction; conditions: for Genotoxicity test, With S9 rat liver extract, Rtkn, 10 / Genotoxicity test, Without S9 rat liver extract, Rtkn, 10: GFP induction vs vehicle at 10% cytotoxicity; for Genotoxicity test, With S9 rat liver extract, Rtkn, 10 / Genotoxicity test, With S9 rat liver extract, Rtkn, 25 / Genotoxicity test, With S9 rat liver extract, Rtkn, 50: 3 h exposure with S9, 24 h recovery; for Genotoxicity test, Without S9 rat liver extract, Rtkn, 10 / Genotoxicity test, Without S9 rat liver extract, Rtkn, 25 / Genotoxicity test, Without S9 rat liver extract, Rtkn, 50: 24 h exposure, no S9; for Genotoxicity test, With S9 rat liver extract, Rtkn, 25 / Genotoxicity test, Without S9 rat liver extract, Rtkn, 25: GFP induction vs vehicle at 25% cytotoxicity; for Genotoxicity test, With S9 rat liver extract, Rtkn, 50 / Genotoxicity test, Without S9 rat liver extract, Rtkn, 50: GFP induction vs vehicle at 50% cytotoxicity
Bscl2-GFP = assay: ToxTracker genotoxicity assay, Bscl2-GFP reporter induction; conditions: for Genotoxicity test, With S9 rat liver extract, Bscl 2, 10 / Genotoxicity test, Without S9 rat liver extract, Bscl 2, 10: GFP induction vs vehicle at 10% cytotoxicity; for Genotoxicity test, With S9 rat liver extract, Bscl 2, 10 / Genotoxicity test, With S9 rat liver extract, Bscl 2, 25 / Genotoxicity test, With S9 rat liver extract, Bscl 2, 50: 3 h exposure with S9, 24 h recovery; for Genotoxicity test, Without S9 rat liver extract, Bscl 2, 10 / Genotoxicity test, Without S9 rat liver extract, Bscl 2, 25 / Genotoxicity test, Without S9 rat liver extract, Bscl 2, 50: 24 h exposure, no S9; for Genotoxicity test, With S9 rat liver extract, Bscl 2, 25 / Genotoxicity test, Without S9 rat liver extract, Bscl 2, 25: GFP induction vs vehicle at 25% cytotoxicity; for Genotoxicity test, With S9 rat liver extract, Bscl 2, 50 / Genotoxicity test, Without S9 rat liver extract, Bscl 2, 50: GFP induction vs vehicle at 50% cytotoxicity

Structure (SMILES)	Genotoxicity test, With S9 rat liver extract, Rtkn, 10 (Rtkn-GFP)	Genotoxicity test, Without S9 rat liver extract, Rtkn, 10 (Rtkn-GFP)	Genotoxicity test, With S9 rat liver extract, Rtkn, 25 (Rtkn-GFP)	Genotoxicity test, Without S9 rat liver extract, Rtkn, 25 (Rtkn-GFP)	Genotoxicity test, With S9 rat liver extract, Rtkn, 50 (Rtkn-GFP)	Genotoxicity test, Without S9 rat liver extract, Rtkn, 50 (Rtkn-GFP)	Genotoxicity test, With S9 rat liver extract, Bscl 2, 10 (Bscl2-GFP)	Genotoxicity test, Without S9 rat liver extract, Bscl 2, 10 (Bscl2-GFP)	Genotoxicity test, With S9 rat liver extract, Bscl 2, 25 (Bscl2-GFP)	Genotoxicity test, Without S9 rat liver extract, Bscl 2, 25 (Bscl2-GFP)	Genotoxicity test, With S9 rat liver extract, Bscl 2, 50 (Bscl2-GFP)	Genotoxicity test, Without S9 rat liver extract, Bscl 2, 50 (Bscl2-GFP)
CC(CN1CC1C)OC(=O)NCCCCCCNC(=O)OC(C)CN1CC1C (centres unmarked) [Comp. Ex. 6, reference compound]	2.2 fold	2.1 fold	3.4 fold	3.1 fold	2.1 fold	3.1 fold	1.4 fold	1.4 fold	2.1 fold	2.0 fold	2.3 fold	2.0 fold
CC(CN1CC1C)OC(=O)NCC1(C)CC(NC(=O)OC(C)CN2CC2C)CC(C)(C)C1 (centres unmarked) [Comp. Ex. 7, reference compound]	1.6 fold	1.6 fold	2.7 fold	2.5 fold	3.5 fold	3.8 fold	1.2 fold	1.2 fold	1.6 fold	1.6 fold	1.7 fold	2.4 fold
CC(CN1CC1C)OC(=O)NC(C)(C)c1cccc(C(C)(C)NC(=O)OC(C)CN2CC2C)c1 (centres unmarked) [Comp. Ex. 8, reference compound]	1.3 fold	1.4 fold	4.2 fold	2.3 fold	4.9 fold	4.8 fold	1.1 fold	1.2 fold	2.1 fold	1.7 fold	2.1 fold	2.3 fold
CC(CN1CC1C)OC(=O)NC1CCC(CC2CCC(NC(=O)OC(C)CN3CC3C)CC2)CC1 (centres unmarked) [Comp. Ex. 9, reference compound]	1.6 fold	1.5 fold	2.6 fold	2.2 fold	3.7 fold	3.3 fold	1.2 fold	1.2 fold	1.6 fold	1.6 fold	2.0 fold	2.2 fold
CCCCOCC(CN1CC1C)OC(=O)NCCCCCCNC(=O)OC(COCCCC)CN1CC1C (centres unmarked) [Comp. Ex. 10, reference compound]	1.5 fold	1.2 fold	2.3 fold	1.9 fold	2.2 fold	1.9 fold	1.3 fold	1.3 fold	1.5 fold	1.5 fold	1.5 fold	1.6 fold
CCCCOCC(CN1CC1C)OC(=O)Nc1ccc(C)c(NC(=O)OC(COCCCC)CN2CC2C)c1 (centres unmarked) [Comp. Ex. 11, reference compound]	1.2 fold	1.3 fold	2.1 fold	2.1 fold	2.5 fold	2.3 fold	1.3 fold	1.2 fold	1.7 fold	1.6 fold	1.6 fold	1.9 fold
CC(CN1CC1C)OC(=O)NCCCCCCn1c(=O)n(CCCCCCNC(=O)OC(C)CN2CC2C)c(=O)n(CCCCCCNC(=O)OC(C)CN2CC2C)c1=O (centres unmarked) [Ex. 1]	1.2 fold	1.2 fold	1.1 fold	1.2 fold	0.9 fold	1.4 fold						
CC(CN1CC1C)OC(=O)NCCCCCC/N=c1\oc(=O)n(CCCCCCNC(=O)OC(C)CN2CC2C)c(=O)n1CCCCCCNC(=O)OC(C)CN1CC1C (centres unmarked) [Ex. 2]	1.1 fold	1.1 fold		1.0 fold		0.9 fold	1.0 fold	1.1 fold		1.1 fold		0.9 fold
CCC(CN1CC1C)OC(=O)NCCCCCCn1c(=O)n(CCCCCCNC(=O)OC(CC)CN2CC2C)c(=O)n(CCCCCCNC(=O)OC(CC)CN2CC2C)c1=O (centres unmarked) [Ex. 7]	1.1 fold	1.1 fold	1.3 fold	1.3 fold	1.5 fold		1.1 fold	1.1 fold	1.3 fold	1.1 fold	1.5 fold	
CC(OC(=O)NCCCCCCn1c(=O)n(CCCCCCNC(=O)OC(C)C(C)N2CC2C)c(=O)n(CCCCCCNC(=O)OC(C)C(C)N2CC2C)c1=O)C(C)N1CC1C (centres unmarked) [Ex. 8]	1.3 fold	1.2 fold	1.5 fold	1.4 fold	1.3 fold	1.4 fold						
C=CCOCC(CN1CC1C)OC(=O)NCCCCCCn1c(=O)n(CCCCCCNC(=O)OC(COCC=C)CN2CC2C)c(=O)n(CCCCCCNC(=O)OC(COCC=C)CN2CC2C)c1=O (centres unmarked) [Ex. 9]	1.1 fold	1.0 fold	1.1 fold	1.1 fold	1.2 fold	1.1 fold	1.2 fold	1.1 fold	1.2 fold	1.2 fold	1.2 fold	1.2 fold
CCCCOCC(CN1CC1C)OC(=O)NC(C)(C)c1cccc(C(C)(C)NC(=O)OC(COCCCC)CN2CC2C)c1 (centres unmarked) [Ex. 11]	1.3 fold	1.1 fold	1.3 fold	1.3 fold	1.1 fold	1.3 fold	1.2 fold	1.1 fold	1.3 fold	1.3 fold	1.3 fold	1.3 fold
CCCCOCC(CN1CC1C)OC(=O)NC1CCC(CC2CCC(NC(=O)OC(COCCCC)CN3CC3C)CC2)CC1 (centres unmarked) [Ex. 12]	1.0 fold	1.0 fold	1.0 fold	1.0 fold	1.1 fold	1.0 fold	1.1 fold	1.0 fold	1.0 fold	1.0 fold	1.0 fold	1.0 fold
CCCCOCC(CN1CC1C)OC(=O)NCCCCCCN1C(=O)N(CCCCCCNC(=O)OC(COCCCC)CN2CC2C)C1=O (centres unmarked) [Ex. 13]	1.4 fold	1.1 fold	1.6 fold	1.2 fold			1.2 fold	1.1 fold	1.2 fold	1.3 fold		
